In patent US20190328752A1, “COMPOUNDS FOR THE TREATMENT OF NIEMANN-PICK DISEASE TYPE C1” (UNIVERSITEIT MAASTRICHT, priority 2016, published 2019):
Read-outs that look alike come from different tables or passages of the source.

Assays:
NPC1mut BMDMs [1] = experiment: TNFα secretion (ELISA) by oxLDL/LPS-stimulated BMDMs, mutant; assay type: cell-based, mice; conditions: 0.6 μM sitostanol 4 hours after oxLDL, then LPS; vs carrier control; p=0.000; FIG. 1A
Experimental: (§1) Bone-marrow derived cells (BMDCs) were isolated from tibea and femurs of NPC1 wild type (WT) and mutant mice on a C57BL/6 background. BMDCs were cultured for 8-9 days in RPMI-1640 (GIBCO Invitrogen, Breda, The Netherlands) with 10% heat-inactivated fetal calf serum (Bodinco B. V. Alkmaar, The Netherlands), penicillin (100 U/ml), streptomycin (100 μg/ml) and L-glutamine (2 mM) (all GIBCO invitrogen, Breda, The Netherlands) enriched with 20% L929-conditioned medium (LCM) to generate bone marrow-derived macrophages (BMDMs). After attachment, the BMDMs were seeded at 350,000 cells per well in 24 wells plates and incubated with oxLDL for 24. After the oxLDL stimulation, the cells were washed and incubated with cyclodextrin (carrier control) or 0.6 μM sitostanol for 4 hours. The BMDMs were subsequently washed and stimulated with 100 ng/ml LPS for 4 hours to generate an inflammatory response. Finally, BMDMs were lysed for RNA isolation. Gene expression analysis of inflammatory (TNFα, Arginase 1 and inducible NOS), anti-inflammatory (IL-10) and lysosomal cholesterol trafficking (NPC1 and NPC2) genes was performed. […]
(§2) Mouse TNFα secreted protein levels were determined by using the TNFα ELISA kit (mouse TNFα ELISA Ready-SET-Go!, eBioscience, San Diego, Calif.). […] Optical density (OD) was measured at 450 nm by using a spectrophotometer and TNFα concentrations were determined.

NPC1WT BMDMs [2] = experiment: TNFα secretion (ELISA) by oxLDL/LPS-stimulated BMDMs, wild type; assay type: cell-based, mice; conditions: 0.6 μM sitostanol 4 hours after oxLDL, then LPS; vs carrier control; p=0.000; FIG. 1A
Experimental: as §1, §2

[3] = humans, cited from earlier work
NPC1mut BMDMs [4] = experiment: Gene expression of inflammatory mediators in oxLDL/LPS-stimulated BMDMs, mutant; assay type: cell-based, mice; conditions: FIG. 1B
Experimental: (§3) Bone-marrow derived cells (BMDCs) were isolated from tibea and femurs of NPC1 wild type (WT) and mutant mice on a C57BL/6 background. BMDCs were cultured for 8-9 days in RPMI-1640 (GIBCO Invitrogen, Breda, The Netherlands) with 10% heat-inactivated fetal calf serum (Bodinco B. V. Alkmaar, The Netherlands), penicillin (100 U/ml), streptomycin (100 μg/ml) and L-glutamine (2 mM) (all GIBCO invitrogen, Breda, The Netherlands) enriched with 20% L929-conditioned medium (LCM) to generate bone marrow-derived macrophages (BMDMs). After attachment, the BMDMs were seeded at 350,000 cells per well in 24 wells plates and incubated with oxLDL for 24. After the oxLDL stimulation, the cells were washed and incubated with cyclodextrin (carrier control) or 0.6 μM sitostanol for 4 hours. The BMDMs were subsequently washed and stimulated with 100 ng/ml LPS for 4 hours to generate an inflammatory response. Finally, BMDMs were lysed for RNA isolation. Gene expression analysis of inflammatory (TNFα, Arginase 1 and inducible NOS), anti-inflammatory (IL-10) and lysosomal cholesterol trafficking (NPC1 and NPC2) genes was performed. Furthermore, the supernatant was frozen until protein expression analysis of the pro-inflammatory TNFα was performed by Enzyme-Linked Immunosorbent Assay (ELISA).

NPC1WT BMDMs [5] = experiment: Gene expression of inflammatory mediators in oxLDL/LPS-stimulated BMDMs, wild type; assay type: cell-based, mice; conditions: 0.6 μM sitostanol; p=0.028; FIG. 1B
Experimental: as §3

[6] = in vivo; cited from earlier work

| Compound | TNFα secretion (NPC1mut BMDMs [1]) | TNFα secretion (NPC1WT BMDMs [2]) | plasma concentration ([3]; 3 grams per day) | plasma concentration ([3]; 9 grams per day) | gene expression of arginase 1 (M2 macrophage marker) (NPC1mut BMDMs [4]; 0.6 μM sitostanol vs carrier control, p=0.000) | gene expression of Tnfα (NPC1mut BMDMs [4]; 0.6 μM sitostanol vs carrier control, p=0.136) | iNOS/arginase 1 gene expression ratio (NPC1mut BMDMs [4]; 0.6 μM sitostanol vs control-treated NPC1mut BMDMs, p=0.074) | gene expression of IL-10 (NPC1WT BMDMs [5]) | ability to cross the blood brain barrier [6] |
| --- | --- | --- | --- | --- | --- | --- | --- | --- | --- |
| CC[C@H](CC[C@@H](C)[C@H]1CC[C@H]2[C@@H]3CC[C@H]4C[C@@H](O)CC[C@]4(C)[C@H]3CC[C@]12C)C(C)C [sitostanol] | significantly reduced | significantly reduced | 40.9 microgram per dl | 57.2 microgram per dl | significantly increased | trend towards reduced expression | trend towards a reduced | increased | – |
| cyclodextrin | – | – | – | – | – | – | – | – | inability of cyclodextrin to cross the blood brain barrier |
